Like-named read-outs stand apart in the source and are kept apart here.
How the values were obtained:
adenosine receptors = settings: in words; development for ischemic stroke halted; cited from earlier work
A1 adenosine receptor [1] = target: T1, A1 adenosine receptor (Rattus norvegicus, UniProt P25099); settings: cited from earlier work
T1 sequence (P25099 1-326): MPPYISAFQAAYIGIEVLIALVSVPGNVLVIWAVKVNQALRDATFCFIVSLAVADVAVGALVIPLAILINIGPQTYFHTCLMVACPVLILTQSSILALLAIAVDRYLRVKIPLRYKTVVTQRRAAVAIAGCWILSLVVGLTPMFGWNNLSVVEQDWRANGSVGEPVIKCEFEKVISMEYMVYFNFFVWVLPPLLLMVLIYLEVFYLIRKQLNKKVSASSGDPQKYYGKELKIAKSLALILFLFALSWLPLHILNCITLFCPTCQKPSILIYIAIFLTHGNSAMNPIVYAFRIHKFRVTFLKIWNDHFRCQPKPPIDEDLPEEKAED

A2A adenosine receptor [2] = target: T2, A2A adenosine receptor (Rattus norvegicus, UniProt P30543); settings: Table 1, literature values; cited from earlier work
T2 sequence (P30543 whole entry): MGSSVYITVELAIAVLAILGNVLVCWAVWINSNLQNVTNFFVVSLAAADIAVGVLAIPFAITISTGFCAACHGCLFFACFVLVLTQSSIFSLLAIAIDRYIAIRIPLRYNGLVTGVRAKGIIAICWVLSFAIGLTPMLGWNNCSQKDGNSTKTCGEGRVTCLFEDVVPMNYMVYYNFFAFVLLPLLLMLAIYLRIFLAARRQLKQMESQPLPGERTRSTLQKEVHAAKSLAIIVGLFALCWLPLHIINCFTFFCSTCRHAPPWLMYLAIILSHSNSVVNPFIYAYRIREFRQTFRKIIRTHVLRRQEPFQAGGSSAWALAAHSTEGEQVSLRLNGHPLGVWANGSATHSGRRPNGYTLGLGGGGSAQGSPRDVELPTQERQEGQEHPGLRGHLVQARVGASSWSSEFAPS

[3] = in words; cited from earlier work
[4] = in words; cited from earlier work; remark: listed apart in the source
A2A-receptors = settings: read-out: KiA2A; cited from earlier work
A2A adenosine receptor [5] = target: T2, A2A adenosine receptor; assay: Receptor binding assay with [3H]MSX-2 on A2A-adenosine receptors; parameters: tissue Pel Freez Company (Rogers, Ark., USA); host or cells: rat brain striatum membranes; settings: for Ki: Table 2, [3H]MSX-2, read-out: A2A K1
Text: (§1) The data of the biological tests that are cited below results from radioligand-binding assays on A1, A2A, A2B and A3 adenosine receptors (ARs).
(§2) The following selective radioligands are used in the biological tests: • [^3H]CCPA (for A1 ARs) [Klotz et al., Naunyn-Schmiedeberg's Arch. Pharmacol., 340, 679 (1989)] • [^3]MSX-2 (for A2A ARs) [Muiller et al., Eur. J. Pharm. Sci., 10, 259 (2000)] • [^3H]ZM241385 (for A2B ARs_[X.-D. Ji, K. A. Jacobson, Drug Des. Discov., 16, 217 (1999)] • [^3H]PSB-11 (new antagonistic radioligand for human A3 ARs) [M. Dieckmann, M. Thorand, V. Ozola, C. E. Muiller, in Vorbereitung [Preparation] (2001)]. • [^125I]AB-MECA (for rat-A3 ARs) [Olah et al., Mol. Pharmacol., 45, 978 (1994)]. Description of the Assays That are Used for Testing Substances Production of Tissue Preparations Made from Rat Brains
(§3) The cell decomposing of the cerebral cortex is carried out with a glass-Teflon homogenizer (stages 5-6, 10 seconds) in 0.32 M saccharose solution. The membranes are purified over various centrifuging steps. With centrifuging at 600 g, 4° C., for 10 minutes, a large amount of cell debris is separated via the P1 fraction, and the supernatant (P2 fraction) is further worked up: in the subsequent three centrifuging steps (35,000 g; 4° C.; 60 minutes), a pellet is produced that is resuspended in 50 mmol of TRIS buffer, pH 7.4 with the Ultraturrax (stages 3-4, 3 seconds); the respective supernatant is discarded. The striata are added to cold TRIS buffer, homogenized with the Ultraturrax in stages 3 to 4-(3 seconds) and then centrifuged at 35,000 g, 4° C., for 20 minutes. The supernatant is discarded, and the pellet is resuspended in 50 mmol of TRIS buffer (50 mmol, pH 7.4). The washing process is repeated twice more. The membrane preparations are stored at −80° C. and are held for several months. The cerebral cortex membrane preparation is used for A1-radioligand binding studies, and the striatum is used for A2A-radiologiand binding studies.
(§4) The test substances are dissolved in DMSO to 10 mmol. The final concentration of DMSO in the assay is 2.5% for A1- and A2A-adenosine receptor assays and 1-2% for A2B- and A3-assays. Dilution series of the test substances are produced from the stock solution. Five to eight different test concentrations, which comprise 3 orders of magnitude (e.g., 1 nm to 1000 nm), are used.
Receptor Binding Assay with [^3H]MSX-2 on A2A-Adenosine Receptors:
• 25 μl of DMSO, NECA (800 μmol) or test substance dilutions • 775 μl of TRIS buffer (for production, see above) • 100 μl of [^3H]MSX-2 (final concentration 1 nmol; KD value 8 nmol) • 100 μl of rat-striatum-membrane preparation or preparation of CHO cells, which express the human A2A receptor, incubated with 0.12 IE adenosine-deaminase (protein concentration: 25-75 μg/ml) • 1000 μl of final volume
The assay is performed according to the instructions of the receptor-binding assay with [^3H]CCPA with consideration of the amounts and solutions that are listed above. The incubation time is 30 minutes at 23° C. in an oscillating water bath. The glass fiber filter is introduced 30 minutes before use in 0.5% PEI solution.
(§5) The mean value is calculated from three independent experiments. IC50 and K, values are obtained from the Cheng-Prusoff equation, the concentration and the KD value of the radioligand. For calculation, the program GraphPadPrism™, Version 3.0 (GraphPad, San Diego, Calif., USA), was used.

A1 adenosine receptor [6] = target: T1, A1 adenosine receptor; assay: Radioligand binding with [3H]CCPA on A1-adenosine receptors, rat brain cortex membranes; parameters: tissue Pel Freez Company (Rogers, Ark., USA); host or cells: rat brain cerebral cortex membranes; settings: Table 2; [3H]CCPA; read-out: A1 K1
Text: as §1, §2
For the preparations, deep-frozen rat brains of the Pel Freez Company (Rogers, Ark., USA) are used. The rat brains are thawed in 0.32 M saccharose solution, the cortex is cut off, and the striata are prepared outside.
as §3, §4
Radioligand Binding Studies with [^3H]CCPA on A1-Adenosine Receptors:
The mixture is incubated for 90 minutes in an oscillating water bath at 23° C. Then, it is filtered off with a Brandel cell-harvester and washed twice more with ice-cooled TRIS buffer, 50 mmol, pH 7.4 (3 ml). The filter plates are conveyed in scintillation vials, doused with 2.5 ml of Ultima Gold Scintillation cocktail and incubated for at least 6 hours before they are measured in a scintillation counter.
as §5

[7] = Table 1, literature values, read-out: A1 K1

Structure (SMILES): Nc1nc2ccc(Cl)cc2c2nc(-c3ccco3)nn12 [CGS-15943, 9-Chloro-2-(2-furanyl)-[1,2,4]triazolo[1,5-c]quinazoline-5-amine]
- selectivity (adenosine receptors): inadequate selectivity

Structure (SMILES): Clc1cc(-c2nc3ccccc3n3c(-c4ccco4)nnc23)[nH]n1 [R = 2-Furyl]
- Ki (A1 adenosine receptor [1]; [7]): 410 ± 160 nM
- A2A % Inhibition @ 25 μmol (A2A adenosine receptor [2]): (31% ± 3%)

Structure (SMILES): Clc1cc(-c2nc3ccccc3n3c(-c4cccs4)nnc23)[nH]n1 [R = 2-Thienyl]
- Ki (A1 adenosine receptor [1]; [7]): 710 ± 60 nM
- A2A % Inhibition @ 25 μmol (A2A adenosine receptor [2]): (22% ± 13%)

Structure (SMILES): Clc1cc(-c2nc3ccccc3n3c(Cc4cccs4)nnc23)[nH]n1 [R = 2-Thienylmethyl]
- Ki (A1 adenosine receptor [1]; read-out: KiA1): 200 nM
- A2A % Inhibition @ 25 μmol (A2A adenosine receptor [2]): (21% ± 10%)

Structure (SMILES): Clc1cc(-c2nc3ccccc3n3c(-c4ccccc4)nnc23)[nH]n1 [R = —C6H5]
- Ki (A1 adenosine receptor [1]; [7]): 1620 ± 680 nM
- A2A % Inhibition @ 25 μmol (A2A adenosine receptor [2]): (0%)

Structure (SMILES): Clc1cc(-c2nc3ccccc3n3c(Cc4ccccc4)nnc23)[nH]n1 [R =—CH2C6H5]
- Ki (A1 adenosine receptor [1]; [7]): 310 ± 90 nM
- A2A % Inhibition @ 25 μmol (A2A adenosine receptor [2]): (6.1% ± 1.5%)

Structure (SMILES): Nc1nc2c(cnn2CCc2ccccc2)c2nc(-c3ccco3)nn12 [Sch-52861, 2-(2-Furanyl)-7-(2-phenylethyl)-7H-pyrazolo[4,3-e][1,2,4]triazolo[1,5-c]pyrimidine-5-amine]
- solubility [3]: inadequate solubility
- oral bioavailability [4]: poor oral bioavailability
- Ki (A2A-receptors): 2.3 nM

Structure (SMILES): Clc1cc(-c2nc3ccccc3n3c(-c4ccsc4)nnc23)n[nH]1 [Y = C-(3-Thienyl), R5 = H, R6 = Cl]
- Ki (A2A adenosine receptor [5]): 4100 nM
- Ki (A1 adenosine receptor [6]): 330 nM

Structure (SMILES): Clc1cc(-c2nc3ccccc3n3c(COCc4ccccc4)nnc23)n[nH]1 [Y = C—CH2—O—CH2-Ph, R5 = H, R6 = Cl]
- A2A % inhib. @ 10 μmol (A2A adenosine receptor [5]; 10 μmol): (3%)
- Ki (A2A adenosine receptor [5]): > 10000 nM
- Ki (A1 adenosine receptor [6]): 620 nM

Structure (SMILES): CC(Oc1ccccc1)c1nnc2c(-c3cc(Cl)[nH]n3)nc3ccccc3n12 (stereo not drawn) [Y = C—CH—(CH3)—O-Ph, R5 = H, R6 = Cl]
- Ki (A2A adenosine receptor [5]): 1180 nM
- Ki (A1 adenosine receptor [6]): 100 nM

Reference: patent publication US20050107611A1, “Pyrazolyl-substituted triazoloquinoxalines” (priority 2001, published 2005)
